Each structure is given as a SMILES string.

This assay addresses T1, human mPGES-1 (Homo sapiens, UniProt O14684).
T1 construct: made in house; host or cells: COS-1 cells (transient transfection; microsomal fraction used as enzyme)
T1 sequence (O14684 1-152): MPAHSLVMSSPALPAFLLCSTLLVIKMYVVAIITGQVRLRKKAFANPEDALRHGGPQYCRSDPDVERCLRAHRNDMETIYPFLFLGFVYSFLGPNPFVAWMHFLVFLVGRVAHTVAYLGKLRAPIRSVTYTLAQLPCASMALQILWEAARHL
Nature of the assay: Test for mPGES-1 inhibitory activity (microsomal enzyme, PGE2 EIA). Type of assay: biochemical. Conditions: microsomes of COS-1 cells transfected with human mPGES-1 cDNA; PGH2 1 μM; 4° C., 4 minutes; PGE2 by EIA; read-out: h mPGES1 IC50. The method, boiled down: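 Enzyme source was microsomes from COS-1 cells transiently expressing human mPGES-1, in sodium phosphate pH 7.2 with 2.5 mM GSH, 1 mM EDTA and 2% DMSO final. After a 15 min preincubation with compound at 4 °C, 1 μM PGH2 (final) reacted for 4 min at 4 °C.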
As usually defined, the IC50 is the concentration that gives 50% inhibition. For `CCc1cc(=O)[nH]c(-c2c(C(F)(F)F)ccc(CNC(=O)[C@H]3C[C@H](OCc4ccc(F)c(F)c4)C3)c2F)n1` [Example 203, trans-3-[(3,4-difluorobenzyl)oxy]-N-[3-(4-ethyl-6-oxo-1,6-dihydropyrimidin-2-yl)-2-fluoro-4-(trifluoromethyl)benzyl]cyclobutane-1-carboxamide], the IC50 was below 1 nM.
Consider `CCc1cc(=O)[nH]c(-c2c(C(F)(F)F)ccc(CNC(=O)[C@H]3C[C@H](OCc4cc(F)cc(F)c4)C3)c2F)n1` [Example 204, trans-3-[(3,5-difluorobenzyl)oxy]-N-[3-(4-ethyl-6-oxo-1,6-dihydropyrimidin-2-yl)-2-fluoro-4-(trifluoromethyl)benzyl]cyclobutane-1-carboxamide], for which the IC50 amounted to 13 nM.
As for `CCc1cc(=O)[nH]c(-c2c(C(F)(F)F)ccc(CNC(=O)[C@H]3C[C@H](OCc4cccc(F)c4)C3)c2F)n1` [Example 205, trans-N-[3-(4-ethyl-6-oxo-1,6-dihydropyrimidin-2-yl)-2-fluoro-4-(trifluoromethyl)benzyl]-3-[(3-fluorobenzyl)oxy]cyclobutane-1-carboxamide], the figure is 14 nM; as for `CCc1cc(=O)[nH]c(-c2c(C(F)(F)F)ccc(CNC(=O)[C@H]3C[C@H](OCc4cccc(F)c4F)C3)c2F)n1` [Example 206, trans-3-[(2,3-difluorobenzyl)oxy]-N-[3-(4-ethyl-6-oxo-1,6-dihydropyrimidin-2-yl)-2-fluoro-4-(trifluoromethyl)benzyl]cyclobutane-1-carboxamide], 15 nM; as for `CCc1cc(=O)[nH]c(-c2c(C(F)(F)F)ccc(CNC(=O)[C@H]3C[C@H](OCc4ccc(F)cc4Cl)C3)c2F)n1` [Example 207, trans-3-[(2-chloro-4-fluorobenzyl)oxy]-N-[3-(4-ethyl-6-oxo-1,6-dihydropyrimidin-2-yl)-2-fluoro-4-(trifluoromethyl)benzyl]cyclobutane-1-carboxamide], 9 nM.
The same measure for `CCc1cc(=O)[nH]c(-c2c(C(F)(F)F)ccc(CNC(=O)[C@H]3C[C@H](OCc4cccc(Cl)c4F)C3)c2F)n1` [Example 208, trans-3-[(3-chloro-2-fluorobenzyl)oxy]-N-[3-(4-ethyl-6-oxo-1,6-dihydropyrimidin-2-yl)-2-fluoro-4-(trifluoromethyl)benzyl]cyclobutane-1-carboxamide]: 8.8 nM; for `CCc1cc(=O)[nH]c(-c2c(C(F)(F)F)ccc(CNC(=O)[C@H]3C[C@H](OCc4cc(Cl)ccc4F)C3)c2F)n1` [Example 209, trans-3-[(5-chloro-2-fluorobenzyl)oxy]-N-[3-(4-ethyl-6-oxo-1,6-dihydropyrimidin-2-yl)-2-fluoro-4-(trifluoromethyl)benzyl]cyclobutane-1-carboxamide]: 8.8 nM; for `CCc1cc(=O)[nH]c(-c2c(C(F)(F)F)ccc(CNC(=O)[C@H]3C[C@H](OCc4ccc(F)c(Cl)c4)C3)c2F)n1` [Example 210, trans-3-[(3-chloro-4-fluorobenzyl)oxy]-N-[3-(4-ethyl-6-oxo-1,6-dihydropyrimidin-2-yl)-2-fluoro-4-(trifluoromethyl)benzyl]cyclobutane-1-carboxamide]: 7.9 nM.
Take `CCc1cc(=O)[nH]c(-c2c(C(F)(F)F)ccc(CNC(=O)[C@H]3C[C@H](OCc4cc(F)cc(Cl)c4)C3)c2F)n1` [Example 211, trans-3-[(3-chloro-5-fluorobenzyl)oxy]-N-[3-(4-ethyl-6-oxo-1,6-dihydropyrimidin-2-yl)-2-fluoro-4-(trifluoromethyl)benzyl]cyclobutane-1-carboxamide]: the IC50 is 9.3 nM.
Turning to `Cc1nc(-c2c(C(F)(F)F)ccc(CNC(=O)[C@H]3C[C@H](OCc4ccccc4Cl)C3)c2F)[nH]c(=O)c1F` [Example 212, trans-3-[(2-chlorobenzyl)oxy]-N-[2-fluoro-3-(5-fluoro-4-methyl-6-oxo-1,6-dihydropyrimidin-2-yl)-4-(trifluoromethyl)benzyl]cyclobutane-1-carboxamide], the IC50 was below 1 nM.
For the compound `Cc1nc(-c2c(C(F)(F)F)ccc(CNC(=O)[C@H]3C[C@H](OCc4cccc(Cl)c4)C3)c2F)[nH]c(=O)c1F` [Example 213, trans-3-[(3-chlorobenzyl)oxy]-N-[2-fluoro-3-(5-fluoro-4-methyl-6-oxo-1,6-dihydropyrimidin-2-yl)-4-(trifluoromethyl)benzyl]cyclobutane-1-carboxamide], the IC50 stood at 11 nM.
As for `Cc1nc(-c2c(C(F)(F)F)ccc(CNC(=O)[C@H]3C[C@H](OCc4ccc(Cl)cc4)C3)c2F)[nH]c(=O)c1F` [Example 214, trans-3-[(4-chlorobenzyl)oxy]-N-[2-fluoro-3-(5-fluoro-4-methyl-6-oxo-1,6-dihydropyrimidin-2-yl)-4-(trifluoromethyl)benzyl]cyclobutane-1-carboxamide], the figure is 8.6 nM; as for `Cc1nc(-c2c(C(F)(F)F)ccc(CNC(=O)[C@H]3C[C@H](OCc4ccccc4C(F)(F)F)C3)c2F)[nH]c(=O)c1F` [Example 215, trans-N-[2-fluoro-3-(5-fluoro-4-methyl-6-oxo-1,6-dihydropyrimidin-2-yl)-4-(trifluoromethyl)benzyl]-3-{[2-(trifluoromethyl)benzyl]oxy}cyclobutane-1-carboxamide], 6.9 nM.
As for `Cc1nc(-c2c(C(F)(F)F)ccc(CNC(=O)[C@H]3C[C@H](OCc4cccc(C(F)(F)F)c4)C3)c2F)[nH]c(=O)c1F` [Example 216, trans-N-[2-fluoro-3-(5-fluoro-4-methyl-6-oxo-1,6-dihydropyrimidin-2-yl)-4-(trifluoromethyl)benzyl]-3-{[3-(trifluoromethyl)benzyl]oxy}cyclobutane-1-carboxamide], the figure is 16 nM; as for `Cc1nc(-c2c(C(F)(F)F)ccc(CNC(=O)[C@H]3C[C@H](OCc4ccc(C(F)(F)F)cc4)C3)c2F)[nH]c(=O)c1F` [Example 217, trans-N-[2-fluoro-3-(5-fluoro-4-methyl-6-oxo-1,6-dihydropyrimidin-2-yl)-4-(trifluoromethyl)benzyl]-3-{[4-(trifluoromethyl)benzyl]oxy}cyclobutane-1-carboxamide], 16 nM; as for `Cc1nc(-c2c(C(F)(F)F)ccc(CNC(=O)[C@H]3C[C@H](OCc4ccc(F)cc4F)C3)c2F)[nH]c(=O)c1F` [Example 218, trans-3-[(2,4-difluorobenzyl)oxy]-N-[2-fluoro-3-(5-fluoro-4-methyl-6-oxo-1,6-dihydropyrimidin-2-yl)-4-(trifluoromethyl)benzyl]cyclobutane-1-carboxamide], 13 nM.
As to `Cc1nc(-c2c(C(F)(F)F)ccc(CNC(=O)[C@H]3C[C@H](OCc4ccc(Cl)cc4F)C3)c2F)[nH]c(=O)c1F` [Example 219, trans-3-[(4-chloro-2-fluorobenzyl)oxy]-N-[2-fluoro-3-(5-fluoro-4-methyl-6-oxo-1,6-dihydropyrimidin-2-yl)-4-(trifluoromethyl)benzyl]cyclobutane-1-carboxamide], the IC50 amounted to 15 nM.
Take `Cc1nc(-c2c(C(F)(F)F)ccc(CNC(=O)[C@H]3C[C@H](OCc4ccc(F)c(F)c4)C3)c2F)[nH]c(=O)c1F` [Example 220, trans-3-[(3,4-difluorobenzyl)oxy]-N-[2-fluoro-3-(5-fluoro-4-methyl-6-oxo-1,6-dihydropyrimidin-2-yl)-4-(trifluoromethyl)benzyl]cyclobutane-1-carboxamide]: the IC50 worked out at 15 nM.
For the compound `Cc1nc(-c2c(C(F)(F)F)ccc(CNC(=O)[C@H]3C[C@H](OCc4cc(F)cc(F)c4)C3)c2F)[nH]c(=O)c1F` [Example 221, trans-3-[(3,5-difluorobenzyl)oxy]-N-[2-fluoro-3-(5-fluoro-4-methyl-6-oxo-1,6-dihydropyrimidin-2-yl)-4-(trifluoromethyl)benzyl]cyclobutane-1-carboxamide], the IC50 stood at 14 nM.
As for `Cc1nc(-c2c(C(F)(F)F)ccc(CNC(=O)[C@H]3C[C@H](OCc4cccc(F)c4)C3)c2F)[nH]c(=O)c1F` [Example 222, trans-N-[2-fluoro-3-(5-fluoro-4-methyl-6-oxo-1,6-dihydropyrimidin-2-yl)-4-(trifluoromethyl)benzyl]-3-[(3-fluorobenzyl)oxy]cyclobutane-1-carboxamide], the IC50 is 15 nM.
With `Cc1nc(-c2c(C(F)(F)F)ccc(CNC(=O)[C@H]3C[C@H](OCc4cccc(F)c4F)C3)c2F)[nH]c(=O)c1F` [Example 223, trans-3-[(2,3-difluorobenzyl)oxy]-N-[2-fluoro-3-(5-fluoro-4-methyl-6-oxo-1,6-dihydropyrimidin-2-yl)-4-(trifluoromethyl)benzyl]cyclobutane-1-carboxamide], the IC50 is below 1 nM.
The same measure for `Cc1nc(-c2c(C(F)(F)F)ccc(CNC(=O)[C@H]3C[C@H](OCc4ccc(F)cc4Cl)C3)c2F)[nH]c(=O)c1F` [Example 224, trans-3-[(2-chloro-4-fluorobenzyl)oxy]-N-[2-fluoro-3-(5-fluoro-4-methyl-6-oxo-1,6-dihydropyrimidin-2-yl)-4-(trifluoromethyl)benzyl]cyclobutane-1-carboxamide]: below 1 nM.
As for `Cc1nc(-c2c(C(F)(F)F)ccc(CNC(=O)[C@H]3C[C@H](OCc4cccc(Cl)c4F)C3)c2F)[nH]c(=O)c1F` [Example 225, trans-3-[(3-chloro-2-fluorobenzyl)oxy]-N-[2-fluoro-3-(5-fluoro-4-methyl-6-oxo-1,6-dihydropyrimidin-2-yl)-4-(trifluoromethyl)benzyl]cyclobutane-1-carboxamide], the figure is below 1 nM.

These data come from patent publication US20250340557A1, “PYRIMIDINE DERIVATIVE” (ASKA PHARMACEUTICAL CO., LTD., priority 2022, published 2025).
